Data as given in ChEMBL document CHEMBL6120963, “Discovery of Novel PROTAC SIRT6 Degraders with Potent Efficacy against Hepatocellular Carcinoma” (J Med Chem, 2024).
Calls of active or inactive are those of the source. The rule behind the calls is not given here.

Experiments:
[1] = biological target: T1, Protein cereblon/NAD-dependent protein deacylase sirtuin-6 (Homo sapiens, UniProt Q8N6T7+Q96SW2); test: PROTAC activity at CRBN/SIRT6 in human SK-HEP1 cells assessed as reduction in density of SIRT6 foci incubated for about 36 hrs by immunofluorescence based analysis; format: cell-based; settings: dose <= 5.0 µM
Target sequence in this assay (Q8N6T7 2-355 limits assumed): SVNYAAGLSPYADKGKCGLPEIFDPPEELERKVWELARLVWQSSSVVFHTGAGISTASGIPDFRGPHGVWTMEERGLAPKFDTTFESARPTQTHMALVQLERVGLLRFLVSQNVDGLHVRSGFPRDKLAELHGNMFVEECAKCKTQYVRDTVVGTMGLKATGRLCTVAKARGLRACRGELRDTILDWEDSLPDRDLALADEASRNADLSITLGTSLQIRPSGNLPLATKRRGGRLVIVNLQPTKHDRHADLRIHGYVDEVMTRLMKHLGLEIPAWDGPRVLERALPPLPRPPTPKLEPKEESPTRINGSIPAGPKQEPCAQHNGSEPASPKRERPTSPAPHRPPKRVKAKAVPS
Target sequence in this assay (Q96SW2 whole entry partner): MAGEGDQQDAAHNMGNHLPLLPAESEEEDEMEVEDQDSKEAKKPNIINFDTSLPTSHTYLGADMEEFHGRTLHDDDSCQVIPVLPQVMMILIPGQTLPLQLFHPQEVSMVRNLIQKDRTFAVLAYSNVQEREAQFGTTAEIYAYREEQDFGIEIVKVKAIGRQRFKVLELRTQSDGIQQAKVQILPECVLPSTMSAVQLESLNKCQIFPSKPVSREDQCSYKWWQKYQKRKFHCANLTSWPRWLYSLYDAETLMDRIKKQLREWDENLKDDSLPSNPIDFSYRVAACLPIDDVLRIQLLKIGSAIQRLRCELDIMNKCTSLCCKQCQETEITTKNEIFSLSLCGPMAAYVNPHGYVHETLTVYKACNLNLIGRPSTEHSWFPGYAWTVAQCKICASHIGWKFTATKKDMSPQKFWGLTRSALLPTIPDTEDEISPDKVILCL

[2] = tested on: SK-HEP1; test: Downregulation of FBXO44 expression in human SK-HEP1 cells at 2.5 uM incubated for 36 hrs in presence of MG132; format: functional, cell-based
[3] = tested on: SK-HEP1; test: Downregulation of FBXO44 expression in human SK-HEP1 cells at 2.5 uM incubated for 36 hrs; format: functional, cell-based
[4] = tested on: SK-HEP1; test: Effect of FN1 mRNA expression in human SK-HEP1 cells at 2.5 uM incubated for 36 hrs by RNA sequencing analysis; format: functional, cell-based
[5] = tested on: Huh-7; test: Effect on SIRT1 expression in human Huh-7 cells at 0.002 to 1 uM incubated for 36 hrs by Western blot analysis; format: functional, cell-based; settings: dose 0.002-1 µM
[6] = Toxicity in BALB/c nude mouse xenografted with human SK-HEP1 cells assessed as pathological damage in kidney at 10 mg/kg treated for 28 to 30 days in presence of sorafenib by H and E staining based analysis; format: organism-based; settings: in vivo, time 28-30 day
[7] = tested on: SK-HEP1; test: Effect of genes related to ubiquitin-mediated proteolysis in human SK-HEP1 cells at 2.5 uM incubated for 36 hrs by GSEA analysis; format: functional, cell-based
[8] = biological target: T1, Protein cereblon/NAD-dependent protein deacylase sirtuin-6; test: PROTAC activity at CRBN/SIRT6 in human SK-HEP1 cells assessed as disruption of CHD4 recruitment to DSB sites at 2.5 uM incubated for 36 hrs followed by VP16 treatment for 4 hrs by Western blot analysis; format: cell-based; settings: time 40.0 hrs
Target sequence in this assay (Q8N6T7 2-355 limits assumed): as the sequence (Q8N6T7 2-355 limits assumed) above
Target sequence in this assay (Q96SW2 whole entry partner): as the sequence (Q96SW2 whole entry partner) above

[9] = biological target: T1, Protein cereblon/NAD-dependent protein deacylase sirtuin-6; test: PROTAC activity at CRBN/SIRT6 in MG132-treated human SK-HEP1 cells assessed as induction of SIRT6 degradation at 2.5 uM treated for 36 hrs by Western blot analysis; format: cell-based
Target sequence in this assay (Q8N6T7 2-355 limits assumed): as the sequence (Q8N6T7 2-355 limits assumed) above
Target sequence in this assay (Q96SW2 whole entry partner): as the sequence (Q96SW2 whole entry partner) above

[10] = Toxicity in BALB/c nude mouse xenografted with human SK-HEP1 cells assessed as pathological damage in liver at 10 mg/kg treated for 28 to 30 days under irradiation (3 Gy) by H and E staining based analysis; format: organism-based; settings: in vivo, time 28-30 day
[11] = tested on: SK-HEP1; test: Induction of apoptosis in human SK-HEP1 cells assessed as rate of apoptotic cells at 10 uM incubated for 72 hrs by Annexin V-FITC/PI staining based flow cytometry relative to control; format: functional
[12] = tested on: SK-HEP1; test: Cytotoxicity against human SK-HEP1 cells combined with irradiation (3 Gy) incubated for 72 hrs by CCK8 assay; format: functional, cell-based; settings: SK-HEP1, light or radiation study
[13] = Toxicity in BALB/c nude mouse xenografted with human SK-HEP1 cells assessed as pathological damage in lungs at 10 mg/kg treated for 28 to 30 days in presence of sorafenib by H and E staining based analysis; format: organism-based; settings: in vivo, time 28-30 day
[14] = biological target: T1, Protein cereblon/NAD-dependent protein deacylase sirtuin-6; test: PROTAC activity at CRBN/SIRT6 in human SK-HEP1 cells assessed as induction of SIRT6 degradation at 2.5 uM incubated for 36 hrs by proteomic analysis; format: cell-based
Target sequence in this assay (Q8N6T7 2-355 limits assumed): as the sequence (Q8N6T7 2-355 limits assumed) above
Target sequence in this assay (Q96SW2 whole entry partner): as the sequence (Q96SW2 whole entry partner) above

[15] = Toxicity in BALB/c nude mouse xenografted with human SK-HEP1 cells assessed as histopathological abnormalities in lungs at 10 mg/kg treated for 28 to 30 days under irradiation (3 Gy) by H and E staining based analysis; format: organism-based; settings: in vivo, time 28-30 day
[16] = tested on: SK-HEP1; test: Antitumor activity against human SK-HEP1 cells xenografted in BALB/c nude mouse assessed as tumor growth suppression at 10 mg/kg treated for 28 to 30 days; format: functional, organism-based; settings: time 28-30 day
[17] = tested on: SK-HEP1; test: Cytotoxicity against human SK-HEP1 cells incubated for 72 hrs by CCK8 assay; format: functional, cell-based; settings: SK-HEP1, 72 h
[18] = tested on: SK-HEP1; test: Effect of H2BC21 mRNA expression in human SK-HEP1 cells at 2.5 uM incubated for 36 hrs by RNA sequencing analysis; format: functional, cell-based
[19] = Toxicity in BALB/c nude mouse xenografted with human SK-HEP1 cells assessed as pathological damage in kidney at 10 mg/kg treated for 28 to 30 days by H and E staining based analysis; format: organism-based; settings: in vivo, time 28-30 day
[20] = tested on: SK-HEP1; test: Downregulation of CCPG1 expression in human SK-HEP1 cells at 2.5 uM incubated for 36 hrs in presence of MG132; format: functional, cell-based
[21] = tested on: SK-HEP1; test: Effect of SIRT2 mRNA expression in human SK-HEP1 cells at 2.5 uM incubated for 36 hrs by RT-qPCR analysis; format: functional, cell-based
[22] = biological target: T1, Protein cereblon/NAD-dependent protein deacylase sirtuin-6; test: PROTAC activity at CRBN/SIRT6 in MLN4924-treated human SK-HEP1 cells assessed as induction of SIRT6 degradation at 2.5 uM treated for 36 hrs by Western blot analysis; format: cell-based
Target sequence in this assay (Q8N6T7 2-355 limits assumed): as the sequence (Q8N6T7 2-355 limits assumed) above
Target sequence in this assay (Q96SW2 whole entry partner): as the sequence (Q96SW2 whole entry partner) above

[23] = biological target: T1, Protein cereblon/NAD-dependent protein deacylase sirtuin-6; test: PROTAC activity at CRBN/SIRT6 in human SK-HEP1 cells assessed as induction of SIRT6 degradation upto 10 uM incubated for 36 hrs by Western blot analysis relative to control; format: cell-based
Target sequence in this assay (Q8N6T7 2-355 limits assumed): as the sequence (Q8N6T7 2-355 limits assumed) above
Target sequence in this assay (Q96SW2 whole entry partner): as the sequence (Q96SW2 whole entry partner) above

[24] = tested on: SK-HEP1; test: Induction of DNA damage in human SK-HEP1 cells xenografted in BALB/c nude mouse assessed as increase in gamma-H2AX level at 10 mg/kg treated for 28 to 30 days under irradiation (3 Gy); format: functional, organism-based; settings: time 28-30 day
[25] = tested on: SK-HEP1; test: Effect of genes related to mitochondrial matrix in human SK-HEP1 cells at 2.5 uM incubated for 36 hrs by GSEA analysis; format: functional, cell-based
[26] = tested on: SK-HEP1; test: Cytotoxicity against human SK-HEP1 cells harboring SIRT6 siRNA incubated for 72 hrs by CCK8 assay; format: functional, cell-based
[27] = tested on: Huh-7; test: Effect on SIRT7 expression in human Huh-7 cells at 0.002 to 1 uM incubated for 36 hrs by Western blot analysis; format: functional, cell-based; settings: dose 0.002-1 µM
[28] = tested on: SK-HEP1; test: Downregulation of CCPG1 expression in human SK-HEP1 cells at 2.5 uM incubated for 36 hrs in presence of MLN4924; format: functional, cell-based
[29] = tested on: SK-HEP1; test: Effect on SIRT1 expression in human SK-HEP1 cells at 0.002 to 1 uM incubated for 36 hrs by Western blot analysis; format: functional, cell-based; settings: dose 0.002-1 µM
[30] = tested on: SK-HEP1; test: Effect on SIRT7 expression in human SK-HEP1 cells at 0.002 to 1 uM incubated for 36 hrs by Western blot analysis; format: functional, cell-based; settings: dose 0.002-1 µM
[31] = tested on: SK-HEP1; test: Effect of SAP18 mRNA expression in human SK-HEP1 cells at 2.5 uM incubated for 36 hrs by RNA sequencing analysis; format: functional, cell-based
[32] = biological target: T1, Protein cereblon/NAD-dependent protein deacylase sirtuin-6; test: PROTAC activity at CRBN/SIRT6 in human Huh-7 cells assessed as induction of SIRT6 degradation incubated for 36 hrs by Western blot analysis; format: cell-based
[33] = tested on: Huh-7; test: Inhibition of colony formation in human Huh-7 cells at 5 to 10 uM incubated for 10 to 14 days with replacement of medium containing compounds on every 3 days by crystal violet staining based analysis; format: functional, cell-based; settings: dose 5-10 µM, time 10-14 day
[34] = Toxicity in BALB/c nude mouse xenografted with human SK-HEP1 cells assessed as pathological damage in lungs at 10 mg/kg treated for 28 to 30 days under irradiation (3 Gy) by H and E staining based analysis; format: organism-based; settings: in vivo, time 28-30 day
[35] = tested on: SK-HEP1; test: Effect of genes related to DNA replication in human SK-HEP1 cells at 2.5 uM incubated for 36 hrs by GSEA analysis; format: functional, cell-based

Nc1cc(N2CCN(CC3CCN(c4cc5c(cc4F)C(=O)N(C4CCC(=O)NC4=O)C5=O)CC3)CC2)ccc1[N+](=O)[O-] (configuration not stated)
Activity [1]: Dose-dependent-effect | Activity [2]: inactive | Activity [3]: Active | Activity [4]: Active | Activity [5]: No effect | Activity [6]: Non-toxic | Activity [7]: Active | Activity [8]: Active | Activity [9]: Not active; Confirms That Proteosome Is Necessary For Sirt6 Degradation | Activity [10]: Non-toxic | Activity [11]: Active | Activity ([11]; record 2): <=60% | IC50 [12]: ~450 nM | Activity [13]: Non-toxic | Activity [14]: Active | Activity [15]: Non-toxic | Activity [16]: Active | IC50 [17]: 1510 nM | Activity [18]: Active | Activity [19]: Non-toxic | Activity [20]: inactive | Activity [21]: No effect | Activity [22]: inactive | Emax [23]: > 98% | Activity [24]: Active | Activity [25]: Active | Activity [26]: inactive | Activity [27]: No effect | Activity [28]: inactive | Activity [29]: No effect | Activity [30]: No effect | Activity [31]: Active | DC50 [32]: 154 nM | Activity ([32]; dose 0.008-5 µM): Dose-dependent-effect; But Reduced Degradation Efficiency Observed | inhibition [33]: Active | Activity [34]: Non-toxic | Activity [35]: Active
